Legend:
[1] = Stability in human plasma; type: in vitro ADME
Method: (§1) The in vitro metabolism and stability of separated diastereomers were determined in PLCE, MT-2 extract and human plasma. A biological sample listed below, 80 μL, was transferred into a screw-capped centrifuge tube and incubated at 37° C. for 5 min. A solution containing 0.2 mg/mL of the test compound in a suitable buffer, 20 μL, was added to the biological sample and mixed. The reaction mixture, 20 μL, was immediately sampled and mixed with 60 μL of methanol containing 0.015 mg/mL of 2-hydroxymethylnaphthalene as an internal standard for HPLC analysis. The sample was taken as the time-zero sample. Then, at specific time points, the reaction mixture, 20 μL, was sampled and mixed with 60 μL of methanol containing the internal standard. The mixture thus obtained was centrifuged at 15,000 G for 5 min and the supernatant was analyzed with HPLC under the conditions described below.
(3) Human plasma (pooled normal human plasma from George King Biomedical Systems, Inc.)
In the study for human plasma, the test compound was dissolved in TBS. TBS (tris-buffered saline, Sigma) contains 0.05 M Tris, 0.0027 M potassium chloride, and 0.138 M sodium chloride. pH 7.5 at 37° C.
(§2) The HPLC analysis was carried out under the following conditions.

[2] = Stability / hydrolysis in MT-2 cell extract; type: in vitro ADME
Method: as §1
(2) MT-2 cell extract was prepared from MT-2 cells according to the published procedure [A. Pompon, I. Lefebvre, J.-L. Imbach, S. Kahn, and D. Farquhar, “Antiviral Chemistry & Chemotherapy”, 5:91-98 (1994)] except for using HEPES buffer described below as the medium.
In the study for MT-2 cell extracts, the test compound was dissolved in HEPES buffer. HEPES buffer contains 0.010 M HEPES, 0.05 M potassium chloride, 0.005 M magnesium chloride, and 0.005 M dl-dithiothreitol. pH 7.4 at 37° C.
as §2

[3] = tested on: PLCE (porcine liver carboxyesterase); assay: in vitro; type: in vitro ADME
Method: as §1
(1) PLCE (porcine liver carboxyesterase from Sigma, 160 u/mg protein, 21 mg protein/mL) diluted 20 fold with PBS (phosphated-buffered saline).
In the study for PLCE, the test compound was dissolved in PBS. PBS (phosphate-buffered saline, Sigma) contains 0.01 M phosphate, 0.0027 M potassium chloride, and 0.137 M sodium chloride. pH 7.4 at 37° C.
as §2

[4] = Excretion and tissue distribution of radiolabelled prodrug in dogs; settings: for % Dose / Conc.: dogs, oral 10 mg-eq. PMPA/kg
Method: Plasma and peripheral blood mononuclear cells (PBMCs) were obtained over the 24-hr period. Urine and feces were cage collected over 24 hr. At 24 h after the dose, the animals were sacrificed and tissues removed for analysis. Total radioactivity in tissues was determined by oxidation and liquid scintillation counting.

[5] = Incubation of radiolabeled PMPA prodrugs or PMPA in human whole blood; metabolites in plasma, PBMCs and RBCs; type: in vitro ADME; settings: for Metabolites (% of Total Peak Area): PMPA: human blood, 1 h
Method: After 1 hour, plasma, red blood cells (RBCs) and peripheral blood mononuclear cells (PBMCs) were isolated and analyzed by HPLC with radiometric detection.

CC(C)OC(=O)OCOP(=O)(CO[C@H](C)Cn1cnc2c(N)ncnc21)OCOC(=O)OC(C)C.O=C(O)/C=C/C(=O)O [TDF, tenofovir disoproxil fumarate, reference compound]
Human Plasma Stability (HP) product ([1]; 37° C., TBS pH 7.5): monoPOC PMPA
Stability T 1/2 Human Plasma ([1]; human, plasma): 0.41 min
Human Plasma Stability (HP) t1/2 ([1]; human, plasma, pH 7.5): 0.41
Stability T 1/2 MT-2 Cell Extract [2]: 70.7 min
MT-2 extract hydrolysis product ([2]; 37° C., HEPES buffer pH 7.4): monoPOC PMPA
MT-2 extract hydrolysis rate t1/2 ([2]; pH 7.4): 70.7 min
CC50 (MT-2 cells): 70 µM
PLCE hydrolysis product ([3]; 37° C., PBS pH 7.4): MonoPOC PMPA
PLCE hydrolysis rate t1/2 ([3]; pH 7.4): < 0.14 min
% Dose ([4]; Abdominal fat, 24 h): 0.00%
Conc. ([4]; Abdominal fat, 24 h): 0.16 ug-eq/g
% Dose ([4]; Adrenal Gland, 24 h): 0.00%
Conc. ([4]; Adrenal Gland, 24 h): 1.90 ug-eq/g
% Dose ([4]; Axillary Lymph Nodes, 24 h): 0.00%
Conc. ([4]; Axillary Lymph Nodes, 24 h): 0.37 ug-eq/g
% Dose ([4]; Bile, 24 h): 0.00%
Conc. ([4]; Bile, 24 h): 9.63 ug-eq/g
% Dose ([4]; Bone Marrow, 24 h): 0.00%
Conc. ([4]; Bone Marrow, 24 h): 0.20 ug-eq/g
% Dose ([4]; Brain, 24 h): 0.00%
Conc. ([4]; Brain, 24 h): <LOD
% Dose ([4]; Cerebrospinal Fluid, 24 h): 0.00%
Conc. ([4]; Cerebrospinal Fluid, 24 h): <LOD
% Dose ([4]; Duodenum, 24 h): 0.49%
Conc. ([4]; Duodenum, 24 h): 4.96 ug-eq/g
% Dose ([4]; Eye (L + R), 24 h): 0.00%
Conc. ([4]; Eye (L + R), 24 h): 0.06 ug-eq/g
% Dose ([4]; Feces, collected over 24 hr): 40.96%
% Dose ([4]; Femoral Bone, 24 h): 0.00%
Conc. ([4]; Femoral Bone, 24 h): 0.08 ug-eq/g
% Dose ([4]; Gall bladder, 24 h): 0.00%
Conc. ([4]; Gall bladder, 24 h): 3.58 ug-eq/g
% Dose ([4]; Heart, 24 h): 0.03%
Conc. ([4]; Heart, 24 h): 0.46 ug-eq/g
% Dose ([4]; Ileum, 24 h): 0.01%
Conc. ([4]; Ileum, 24 h): 0.50 ug-eq/g
% Dose ([4]; Iliac Lymph Nodes, 24 h): 0.00%
Conc. ([4]; Iliac Lymph Nodes, 24 h): 0.51 ug-eq/g
% Dose ([4]; Inguinal Lymph Nodes, 24 h): 0.00%
Conc. ([4]; Inguinal Lymph Nodes, 24 h): 0.28 ug-eq/g
% Dose ([4]; Jejunum, 24 h): 1.34%
Conc. ([4]; Jejunum, 24 h): 3.01 ug-eq/g
% Dose ([4]; Kidney, 24 h): 4.58%
Conc. ([4]; Kidney, 24 h): 87.90 ug-eq/g
% Dose ([4]; Large Intestine, 24 h): 1.63%
Conc. ([4]; Large Intestine, 24 h): 5.97 ug-eq/g
% Dose ([4]; Liver, 24 h): 12.40%
Conc. ([4]; Liver, 24 h): 38.30 ug-eq/g
% Dose ([4]; Lungs, 24 h): 0.03%
Conc. ([4]; Lungs, 24 h): 0.53 ug-eq/g
% Dose ([4]; Mesenteric Lymph Nodes, 24 h): 0.00%
Conc. ([4]; Mesenteric Lymph Nodes, 24 h): 1.20 ug-eq/g
% Dose ([4]; PBMC): 0.00%
% Dose ([4]; Pancreas, 24 h): 0.00%
Conc. ([4]; Pancreas, 24 h): 0.57 ug-eq/g
% Dose ([4]; Pituitary Gland, 24 h): 0.00%
Conc. ([4]; Pituitary Gland, 24 h): 0.23 ug-eq/g
Conc. ([4]; Plasma at 0.25 h): 3.68 ug-eq/g
% Dose ([4]; Plasma at 24 h): 0.00%
Conc. ([4]; Plasma at 24 h): 0.20 ug-eq/g
% Dose ([4]; Prostate, 24 h): 0.00%
Conc. ([4]; Prostate, 24 h): 0.23 ug-eq/g
% Dose ([4]; Salivary Gland (L + R), 24 h): 0.00%
Conc. ([4]; Salivary Gland (L + R), 24 h): 0.45 ug-eq/g
% Dose ([4]; Skeletal Muscle, 24 h): 0.00%
Conc. ([4]; Skeletal Muscle, 24 h): 0.11 ug-eq/g
% Dose ([4]; Skin, 24 h): 0.00%
Conc. ([4]; Skin, 24 h): 0.13 ug-eq/g
% Dose ([4]; Spinal Cord, 24 h): 0.00%
Conc. ([4]; Spinal Cord, 24 h): <LOD
% Dose ([4]; Spleen, 24 h): 0.00%
Conc. ([4]; Spleen, 24 h): 0.63 ug-eq/g
% Dose ([4]; Stomach, 24 h): 0.11%
Conc. ([4]; Stomach, 24 h): 1.92 ug-eq/g
% Dose ([4]; Testes (L + R), 24 h): 0.02%
Conc. ([4]; Testes (L + R), 24 h): 1.95 ug-eq/g
% Dose ([4]; Thyroid Gland, 24 h): 0.00%
Conc. ([4]; Thyroid Gland, 24 h): 0.30 ug-eq/g
% Dose ([4]; Total GI Tract Contents, 24 h): 5.61%
% Dose ([4]; Total Recovery, 24 h): 81.10%
% Dose ([4]; Urine, collected over 24 hr): 23.72%
% Dose ([4]; Whole Blood, 24 h): 0.00%
Conc. ([4]; Whole Blood, 24 h): 0.85 ug-eq/g
main species observed in plasma ([4]; dog, in vivo, po): the parent drug
prodrug concentration in the plasma ([4]; dog, in vivo, po): below the level of assay detection
Metabolites (% of Total Peak Area): PMPApp [5]: 18%
Metabolites (% of Total Peak Area): PMPA ([5]; PBMC): 50%
Metabolites (% of Total Peak Area): PMPA ([5]; Plasma/FP): 11%
Metabolites (% of Total Peak Area): PMPA ([5]; RBC/FP): 93%
